US8881823B2, “Environmentally friendly low temperature breaker systems and related methods” (Halliburton Energy Services, Inc., priority 2011, dated 2014)

Columns and labels:
[1] = Chemical oxygen demand (COD) test; format: physicochemical
Source text: Table 2 compares the biodegradability of GLDA and EDTA and summarizes chemical oxygen demand (COD) tests which indirectly measures the amount of organic compounds in water.

[2] = Miscibility and pH of breaker systems in fresh water; format: physicochemical; details: breaker system in fresh water, 150° F. for 16 hours
Procedure: Several chelating agents and acids (breaker systems) were tested for their calcium carbonate dissolving capacity and miscibility in fresh water. Tests of the breaker systems were performed by adding a known volume of breaker system to a volume of brine needed to fill 100 ml in a jar. The jars were then sealed and swirled to mix the components. Samples containing 5%, 10%, or 20% v/v of chelating agents and acids were prepared. The jars were then placed in a static oven at 150° F. for 16 hours. Afterwards, miscibility of the components was observed and the pH of each mixture was tabulated.

[3] = Multiple step return permeability test; details: 20% GLDA solution in 11 lb/gal sodium bromide, 16 hours soak, approximately 110° F.
Source text: To simulate the performance of a breaker solution in potential downhole applications, a 20% GLDA solution in 11 lb/gal sodium bromide was used in a multiple step return permeability test on a low permeability Berea Sandstone core plug. The following procedure was used.
A 1.0″ diameter core plug was cut out of a Berea Sandstone block having low permeability (about 20% porosity). The core plug was inserted into a containment sleeve of a manual return permeameter (MRP). The pressure chamber was sealed and the temperature was maintained at approximately 110° F., while the confining pressure was at approximately 2,500 psi. Once the temperature and overburden pressure stabilized, isoparaffin solvent (“SOLTROL® 170” commercially available from Chevron Phillips Chemical Company) filtered to 0.45 micron, was produced through the core at 4 ml/min against approximately 200 psi back-pressure. […] The initial and final permeability values were calculated using Darcy's Law for linear flow: […]
Treatment simulation in the lab involved three separate steps, each step potentially causing formation damage or a reduction in permeability. […] Once the displacement of the drill-in fluid was complete, the damage caused by the previous three injection steps was evaluated by pumping of SOLTROL® 170 through the core until a constant permeability was obtained using the same procedure used for the initial permeability. […]

[4] = Active toxicity test of GLDA on Rainbow trout (OECD 203); format: in vivo, Oncorhynchus mykiss; details: rainbow trout (Oncorhynchus mykiss), in vivo, OECD 203, 96-h
Procedure: (§1) GLDA was also tested for its eco-toxicological effect on various environmental subjects. In particular, the active toxicity of GLDA was measured on various organisms following OECD 201, 202 and 203 protocols.

[5] = test system: Rainbow trout (Oncorhynchus mykiss); assay: as above; format: in vivo; details: OECD 203, 96-h
Procedure: as §1

[6] = Initial and over time miscibility and pH in potassium formate brines; format: physicochemical; details: for After Static Aging: overnight 150° F.; for pH Final: static 16 hrs @ 150° F.
Procedure: Completion breaker solutions were to be tested at 5%, 10%, and 20% by volume concentrations in each of the brines. The initial miscibility and the miscibility after static aging overnight at 150° F. were observed. Also, the pH of the final mixes was measured. The different concentrations of the breaker solutions were prepared with fresh water and filtered through a 1.6 μm glass fiber filter prior to testing.
The tests were run by adding the appropriate volume of the test breaker (5%, 10%, or 20% by volume) to the volume of the test brine needed to total 100 ml in a 4 ounce jar, sealing it, and swirling to mix the components. Observation was noted of the compatibility of the components.

[7] = Active toxicity test of GLDA on Daphnia magna (OECD 202); format: in vivo; details: in vivo, OECD 202, 48-h
Procedure: as §1

Daphnia magna = assay: as above; format: in vivo; details: OECD 202, 48-h
Procedure: as §1

[8] = Compatibility and dissolution ability in potassium formate brine; format: physicochemical; details: for % Dissolved or precipitated out / Amount of carbonate remaining: 20% v/v breaker; for Amount of carbonate remaining: 2.5 g calcium carbonate, 16 hours, * = precipitation of formate salts
Procedure: In this Example, the compatibility and dissolution ability of various breaker systems with formate brine were evaluated. […] For each sample a 20% v/v breaker sample was prepared in three different concentrations of potassium formate brine (11 ppg, 12 ppg, and 13 ppg).
To determine the compatibility of each breaker with the potassium formate brine, each sample was checked for the formation of formate salts. This precipitation was indicative of an incompatibility of the breaker system with the formate brine. Samples in which precipitation was observed are noted with an asterisk (*).
The dissolution ability of the breaker systems was also tested in the various concentration of formate brine. […] The jars were then dried in an 90° F. oven for 16 hours. After the elapsed time, the amount of carbonate that remained was weighed and tabulated. The difference in weight represented the amount of carbonate that was dissolved by the breaker system and/or precipitated out as a result of being incompatible with the formate brine.

[9] = 5% by volume, potassium formate brine 11.0 lb/gal
[10] = 5% by volume, potassium formate brine 12.0 lb/gal
[11] = 5% by volume, potassium formate brine 13.0 lb/gal
[12] = 10% by volume, potassium formate brine 11.0 lb/gal
[13] = 10% by volume, potassium formate brine 12.0 lb/gal
[14] = 10% by volume, potassium formate brine 13.0 lb/gal
[15] = 20% by volume, potassium formate brine 11.0 lb/gal
[16] = 20% by volume, potassium formate brine 12.0 lb/gal
[17] = 20% by volume, potassium formate brine 13.0 lb/gal

In the case of O=C(O)CC[C@@H](C(=O)O)N(CC(=O)O)CC(=O)O [GLDA, L-glutamic acid N,N-diacetic acid], the COD [1] is reported as 345 to 385 mg/g, the pH [2] is reported as >12 and the “return permeability after the breaker cleanup, % of the initial permeability” value [3] is reported as 94%. For the same compound, the LC50 at 96 h [4] was > 100 µg/mL, the “96-h NOEC” value [5] was “NOEC ≧ 100 mg/l” and the “Initial Observation” value [6, 9] was “Clear, totally soluble”. For the same compound, the “After Static Aging” value [6, 9] was “Clear, totally soluble”, the “pH Final” value [6, 9] was 12.7 and the “Initial Observation” value [6, 10] was “Clear, totally soluble”. The “After Static Aging” value [6, 10] was “Clear, totally soluble”, the “pH Final” value [6, 10] was 13.3 and the “Initial Observation” value [6, 11] was “Clear, totally soluble”. The “After Static Aging” value [6, 11] was “Clear, totally soluble”, the “pH Final” value [6, 11] was 13.8 and the “Initial Observation” value [6, 12] was “Clear, totally soluble”. The “After Static Aging” value [6, 12] was “Clear, totally soluble”, the “pH Final” value [6, 12] was 13.3 and the “Initial Observation” value [6, 13] was “Clear, totally soluble”. The “After Static Aging” value [6, 13] was “Clear, totally soluble”, the “pH Final” value [6, 13] was 14.4 and the “Initial Observation” value [6, 14] was “Clear, totally soluble”. The “After Static Aging” value [6, 14] was “Clear, totally soluble”, the “pH Final” value [6, 14] was 15.0 and the “Initial Observation” value [6, 15] was “Clear, totally soluble”. For the same compound, the “After Static Aging” value [6, 15] was “Clear, totally soluble”, the “pH Final” value [6, 15] was 13.7 and the “Initial Observation” value [6, 16] was “Clear, totally soluble”. The “After Static Aging” value [6, 16] was “Clear, totally soluble”, the “pH Final” value [6, 16] was 14.7 and the “Initial Observation” value [6, 17] was “Clear, totally soluble”. For the same compound, the “After Static Aging” value [6, 17] was “Clear, totally soluble”, the “pH Final” value [6, 17] was 15.4 and the “solubility / miscibility in the potassium formate brines” value ([6]; tested concentrations, 11.0-13.0 lb/gal brines) was “soluble in the tested concentrations of the potassium formate brine”. The EC50 at 48 h [7] was > 100 µg/mL, the “48-h NOEC” value (Daphnia magna) was “NOEC ≧ 100 mg/l” and the “compatibility with the formate brine” value ([8]; 20% v/v breaker, 11, 12 and 13 ppg potassium formate, precipitation of formate salts = incompatible) was “fully compatible with the formate brine”. For the same compound, the “% Dissolved or precipitated out” value ([8]; 11 ppg Potassium Formate) was 48%, the “Amount of carbonate remaining” value ([8]; 11 ppg Potassium Formate) was 1.05 g and the “% Dissolved or precipitated out” value ([8]; 12 ppg Potassium Formate) was 33%. The “Amount of carbonate remaining” value ([8]; 12 ppg Potassium Formate) was 1.67 g, the “% Dissolved or precipitated out” value ([8]; 13 ppg Potassium Formate) was 20% and the “Amount of carbonate remaining” value ([8]; 13 ppg Potassium Formate) was 2.00 g.
